Source: publication PMC8348562, “Potential Assessment of UGT2B17 Inhibition by Salicylic Acid in Human Supersomes In Vitro” (Molecules, 2021)

B1: UGT2B17 (Homo sapiens) (protein)
chain: GKVLVWPTEYSHWINMKTILEELVQRGHEVIVLTSSASILVNASKSSAIKLEVYPTSLTKNDLEDFFMKMFDRWTYSISKNTFWSYFSQLQELCWEYSDYNIKLCEDAVLNKKLMRKLQESKFDVLLADAVNPCGELLAELLNIPFLYSLRFSVGYTVEKNGGGFLFPPSYVPVVMSELSDQMIFMERIKNMIYMLYFDFWFQAYDLKKWDQFYSEVLGRPTTLFETMGKAEMWLIRTYWDFEFPRPFLPNVDFVGGLHCKPAKPLPKEMEEFVQSSGENGIVVFSLGSMISNMSEESANMIASALAQIPQKVLWRFDGKKPNTLGSNTRLYKWLPQNDLLGHPKTKAFITHGGTNGIYEAIYHGIPMVGIPLFADQHDNIAHMKAKGAALSVDIRTMSSRDLLNALKSVINDPIYKENIMKLSRIHHDQPVKPLDRAVFWIEFVMRHKGAKHLRVAAHNLTWIQYHSLDVIAFLLACVATMIFMITKCCLFCFRKLAKTGKKKKRD

How the values were obtained:
UGT2B17 = molecular target: T1, UGT2B17 (Homo sapiens, UniProt O75795); experiment: HPLC testosterone glucuronidation assay in recombinant supersomes, Lineweaver-Burk analysis at […] salicylic acid; type: biochemical
T1 construct: recombinant human UGT2B17 supersomes (insect cells infected with baculovirus)
T1 sequence (O75795 24-530): B1 chain

purified protein = substrate: C[C@]12CC[C@H]3[C@@H](CCC4=CC(=O)CC[C@@]43C)[C@@H]1CC[C@@H]2O; experiment: purified protein; details: UDPGA; MgCl2

| Molecule | inhibition mode (UGT2B17) | Km (purified protein) [µM] |
| --- | --- | --- |
| O=C(O)c1ccccc1O [salicylic acid] | UGT2B17 enzyme activity was inhibited uncompetitively by salicylic acid based on the in vitro inhibition study in human supersomes |  |
| B1 |  | 259.74 |
